Data on 27 compounds can be found in US10927111B2, “Inhibitors of RAF kinases” (Kinnate Biopharma Inc., priority 2019, dated 2021).

One may read the IC50 as the concentration at which inhibition is half-maximal.

The structures appear in SMILES notation.

Sequence of human RAF1 (P04049 whole entry): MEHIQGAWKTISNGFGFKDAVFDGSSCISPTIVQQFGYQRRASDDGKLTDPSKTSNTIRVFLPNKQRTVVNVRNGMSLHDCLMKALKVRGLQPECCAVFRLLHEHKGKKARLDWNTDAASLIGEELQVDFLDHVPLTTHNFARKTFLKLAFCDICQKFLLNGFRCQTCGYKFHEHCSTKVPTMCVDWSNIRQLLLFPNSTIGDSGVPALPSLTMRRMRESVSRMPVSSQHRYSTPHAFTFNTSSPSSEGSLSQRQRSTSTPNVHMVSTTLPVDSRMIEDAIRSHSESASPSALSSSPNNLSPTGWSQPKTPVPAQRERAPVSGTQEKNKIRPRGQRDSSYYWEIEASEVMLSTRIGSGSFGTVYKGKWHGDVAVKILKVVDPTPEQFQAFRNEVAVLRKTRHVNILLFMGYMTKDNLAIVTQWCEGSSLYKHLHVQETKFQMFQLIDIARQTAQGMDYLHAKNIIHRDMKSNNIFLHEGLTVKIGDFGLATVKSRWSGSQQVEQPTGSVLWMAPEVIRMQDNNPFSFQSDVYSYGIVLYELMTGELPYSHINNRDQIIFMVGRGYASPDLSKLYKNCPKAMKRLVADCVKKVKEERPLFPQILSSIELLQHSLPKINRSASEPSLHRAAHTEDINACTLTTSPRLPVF

For the first assay, the target named is human RAF1 (Homo sapiens (Human), UniProt P04049). Nature of the assay: Protein kinase assay (radiometric 33P-ATP, MEK1 (K97R) substrate). The class given is biochemical. Conditions: human MEK1 (K97R) substrate 3 micromolar, ATP 10 micromolar, 10-dose IC50 mode; read-out: RAF-1 IC50. On the procedure:
Protein kinase assay: Assay platform was used to measure kinase/inhibitor interactions as described previously (Anastassiadis et al., 2011). In brief, for each reaction, kinase and substrate were mixed in a buffer containing 20 mM HEPES (pH 7.5), 10 mM MgCl2, 1 mM EGTA, 0.02% Brij35, 0.02 mg/mL BSA, 0.1 mM Na3VO4, 2 mM DTT, and 1% DMSO. All compounds were solubilized in DMSO. Compounds were then added to each reaction mixture via acoustic dispense using an ECHO 550 nanoliter dispenser. For human RAF1 testing, human MEK1 (K97R) was used as a substrate at a concentration of 3 micromolar, with a final ATP concentration of 10 micromolar. For human BRAF testing, human MEK1 (K97R) was used as a substrate at 1 micromolar concentration, with a final ATP concentration of 25 micromolar. […] After a 20-min incubation, ATP (Sigma-Aldrich, St. Louis, Mo. 63178) and [g33P] ATP (specific activity 10 microCi/microliter) purchased at PerkinElmer (Boston, Mass., 02118 Cat #BLU 003H250UC) were added at a final total concentration of 10 mM. Reactions were carried out at room temperature for 2 hr and spotted onto P81 ionexchange cellulose chromatography paper (Reaction Biology). Filter paper was washed in 0.75% phosphoric acid to remove unincorporated ATP. The percent remaining kinase activity relative to a vehicle-containing (DMSO) kinase reaction was calculated for each kinase/inhibitor pair. IC50 values were calculated using Prism 5 (GraphPad).
Consider `CCc1nc2nc(NC)ncc2cc1-c1cc(NC(=O)c2ccnc(C(F)(F)F)c2)ccc1C` [Example 36, N-(3-(7-ethyl-2-(methylamino)pyrido[2,3-d]pyrimidin-6-yl)-4-methylphenyl)-2-(trifluoromethyl)isonicotinamide], for which the IC50 is at most 10 nM.

Take `CNc1ncc2cc(-c3cc(NC(=O)c4ccnc(C(F)(F)F)c4)ccc3C)c(Cl)nc2n1` [Example 64, N-[3-[7-chloro-2-(methylamino)pyrido[2,3-d]pyrimidin-6-yl]-4-methylphenyl]-2-(trifluoromethyl) pyridine-4-carboxamide]: the IC50 was at most 10 nM.

Take `CNc1ncc2cc(-c3cc(NC(=O)c4cccc(C(F)(F)F)c4)ccc3C)c(C)nc2n1` [Example 29, N-(4-methyl-3-(7-methyl-2-(methylamino)pyrido[2,3-d]pyrimidin-6-yl)phenyl)-3-(trifluoromethyl)benzamide]: the IC50 was at most 10 nM.

As for `Cc1ccc(NC(=O)c2ccnc(C(F)(F)F)c2)cc1-c1cc2cnc(NCCO)nc2nc1C` [Example 40, N-(3-(2-((2-hydroxyethyl)amino)-7-methylpyrido[2,3-d]pyrimidin-6-yl)-4-methylphenyl)-2-(trifluoromethyl)isonicotinamide], the IC50 is at most 10 nM.

`CNc1ncc2cc(-c3cc(NC(=O)N4CC[C@H](CC(F)(F)F)C4)ccc3C)c(C)nc2n1` [Example 19, (R)-N-(4-methyl-3-(7-methyl-2-(methylamino)pyrido[2,3-d]pyrimidin-6-yl)phenyl)-3-(2,2,2-trifluoroethyl)pyrrolidine-1-carboxamide]: the half-maximal inhibitory concentration (IC50) was at most 10 nM.

Turning to `CNc1ncc2cc(-c3cc(NC(=O)N4CC[C@@H](OCC(F)(F)F)C4)c(F)cc3C)c(C)nc2n1` [Example 51, (3R)-N-[2-fluoro-4-methyl-5-[7-methyl-2-(methylamino)pyrido[2,3-d]pyrimidin-6-yl]phenyl]-3-(2,2,2-trifluoroethoxy)pyrrolidine-1-carboxamide], the IC50 was at most 10 nM.

Regarding `CNc1ncc2cc(-c3cc(NC(=O)c4cc(C)nc(C(F)(F)F)c4)ccc3C)c(C)nc2n1` [Example 34, 2-methyl-N-(4-methyl-3-(7-methyl-2-(methylamino)pyrido[2,3-d]pyrimidin-6-yl)phenyl)-6-(trifluoromethyl)isonicotinamide], the IC50 is at most 10 nM.

Take `CNc1ncc2cc(-c3cc(NC(=O)c4cccc(C(F)(F)F)c4C)cnc3C)cnc2n1` [Example 47, 2-methyl-N-(6-methyl-5-(2-(methylamino)pyrido[2,3-d]pyrimidin-6-yl)pyridin-3-yl)-3-(trifluoromethyl)benzamide]: the IC50 was at most 10 nM.

As for `CNc1ncc2cc(-c3cc(NC(=O)N4CCC(C(C)(C)C)C4)c(F)cc3C)c(C)nc2n1` (stereo not drawn) [Example 21, 3-(tert-butyl)-N-(2-fluoro-4-methyl-5-(7-methyl-2-(methylamino)pyrido[2,3-d]pyrimidin-6-yl)phenyl)pyrrolidine-1-carboxamide], the IC50 is at most 10 nM.

`Cc1ccc(NC(=O)c2ccnc(C(F)(F)F)c2)cc1-c1cc2cnc(NC3CC3)nc2nc1C` [Example 37, N-(3-(2-(cyclopropylamino)-7-methylpyrido[2,3-d]pyrimidin-6-yl)-4-methylphenyl)-2-(trifluoromethyl)isonicotinamide]: the IC50 is at most 10 nM.

Turning to `CNc1ncc2cc(-c3cc(NC(=O)N4CCO[C@H](C(F)(F)F)C4)ccc3C)c(C)nc2n1` [Example 13], the IC50 was at most 10 nM.

Turning to `CNc1ncc2cc(-c3cc(NC(=O)c4ccnc(C(F)(F)F)c4C)ccc3C)c(C)nc2n1` [Example 41, 3-methyl-N-(4-methyl-3-(7-methyl-2-(methylamino)pyrido[2,3-d]pyrimidin-6-yl)phenyl)-2-(trifluoromethyl)isonicotinamide], the IC50 was at most 10 nM.

Consider `Cc1ccc(NC(=O)c2ccnc(C(F)(F)F)c2)cc1-c1cc2cnc(NCCN3CCCC3)nc2nc1C` [Example 39, N-(4-methyl-3-(7-methyl-2-((2-(pyrrolidin-1-yl)ethyl)amino)pyrido[2,3-d]pyrimidin-6-yl)phenyl)-2-(trifluoromethyl)isonicotinamide], for which the IC50 was at most 10 nM.

As to `CNc1ncc2cc(-c3cc(NC(=O)N4CC[C@@H](C(F)(F)F)C4)c(F)cc3C)c(C)nc2n1` [Example 2, (R)-N-(2-fluoro-4-methyl-5-(7-methyl-2-(methylamino)pyrido[2,3-d]pyrimidin-6-yl)phenyl)-3-(trifluoromethyl)pyrrolidine-1-carboxamide], the IC50 was at most 10 nM.

As to `CNc1ncc2cc(-c3cc(NC(=O)N4CC[C@H](CC(F)(F)F)C4)c(F)cc3C)c(C)nc2n1` [Example 17, (R)-N-(2-fluoro-4-methyl-5-(7-methyl-2-(methylamino)pyrido[2,3-d]pyrimidin-6-yl)phenyl)-3-(2,2,2-trifluoroethyl)pyrrolidine-1-carboxamide], the IC50 was at most 10 nM.

Regarding `CNc1ncc2cc(-c3cc(NC(=O)N4CC[C@H](OC(F)(F)F)C4)ccc3C)cnc2n1` [Example 56, 3S-N-[4-methyl-3-[2-(methylamino)pyrido[2,3-d]pyrimidin-6-yl]phenyl]-3-(trifluoromethoxy)pyrrolidine-1-carboxamide], the IC50 was at most 10 nM.

As for `CNc1ncc2cc(-c3cc(NC(=O)N4CCn5cnc(C(F)(F)F)c5C4)ccc3C)c(C)nc2n1` [Example 24, N-(4-methyl-3-(7-methyl-2-(methylamino)pyrido[2,3-d]pyrimidin-6-yl)phenyl)-1-(trifluoromethyl)-5,6-dihydroimidazo[l,5-a]pyrazine-7(8H)-carboxamide], the IC50 is at most 10 nM.

On to `CNc1ncc2cc(-c3cc(NC(=O)N4CC[C@@H](OC(F)(F)F)C4)ccc3C)c(C#N)nc2n1` [Example 78, (3R)—N-[3-[7-cyano-2-(methylamino)pyrido[2,3-d]pyrimidin-6-yl]-4-methylphenyl]-3-(trifluoromethoxy)pyrrolidine-1-carboxamide], for which the IC50 was at most 10 nM.

With `CNc1ncc2cc(-c3cc(NC(=O)N4CCO[C@H](C(F)(F)F)C4)c(F)cc3C)c(C)nc2n1` [Example 11, (2S)-N-[2-fluoro-4-methyl-5-[7-methyl-2-(methylamino)pyrido[2,3-d]pyrimidin-6-yl]phenyl]-2-(trifluoromethyl)morpholine-4-carboxamide], the IC50 was at most 10 nM.

As for `CCOc1nc2nc(NC)ncc2cc1-c1cc(NC(=O)c2ccnc(C(F)(F)F)c2)ccc1C` [Example 69, N-[3-[7-ethoxy-2-(methylamino)pyrido[2,3-d]pyrimidin-6-yl]-4-methylphenyl]-2-(trifluoromethyl)pyridine-4-carboxamide], the IC50 was at most 10 nM.

Take `CNc1ncc2cc(-c3cc(NC(=O)c4ccnc(C(F)(F)F)c4)ccc3C)c(C#N)nc2n1` [Example 72, N-[3-[7-cyano-2-(methylamino)pyrido[2,3-d]pyrimidin-6-yl]-4-methylphenyl]-2-(trifluoromethyl)pyridine-4-carboxamide]: the IC50 was at most 10 nM.

Take `Cc1ccc(NC(=O)c2ccnc(C(F)(F)F)c2)cc1-c1cc2cnc(N)nc2nc1C` [Example 48, N-(3-(2-amino-7-methylpyrido[2,3-d]pyrimidin-6-yl)-4-methylphenyl)-2-(trifluoromethyl)isonicotinamide]: the IC50 is at most 10 nM.

The assay is the same for the next values; noted with them: read-out: RAF-1 IC50.
Consider `CNc1ncc2cc(-c3cc(NC(=O)N4CCO[C@@H](C(C)(C)C)C4)c(F)cc3C)c(C)nc2n1` [Example 23, (S)-2-(tert-butyl)-N-(2-fluoro-4-methyl-5-(7-methyl-2-(methylamino)pyrido[2,3-d]pyrimidin-6-yl)phenyl)morpholine-4-carboxamide], for which the IC50 is at most 10 nM.

On to `[2H]C([2H])([2H])Oc1nc2nc(NC)ncc2cc1-c1cc(NC(=O)c2ccnc(C(F)(F)F)c2)ccc1C` [Example 71, N-(3-(7-(methoxy-d3)-2-(methylamino)pyrido[2,3-d]pyrimidin-6-yl)-4-methylphenyl)-2-(trifluoromethyl)isonicotinamide], for which the IC50 is at most 10 nM.

`CNc1ncc2cc(-c3cc(NC(=O)c4ccnc(C(F)(F)F)c4)ccc3C)c(C)nc2n1` [Example 6, N-[4-methyl-3-[7-methyl-2-(methylamino)pyrido[2,3-d]pyrimidin-6-yl]phenyl]-2-(trifluoromethyl)pyridine-4-carboxamide]: the concentration for half-maximal inhibition (IC50) is at most 10 nM.

In the case of `[2H]C([2H])([2H])c1nc2nc(NC)ncc2cc1-c1cc(NC(=O)c2ccnc(C(F)(F)F)c2)ccc1C` [Example 74, N-(4-methyl-3-(7-(methyl-d3)-2-(methylamino)pyrido[2,3-d]pyrimidin-6-yl)phenyl)-2-(trifluoromethyl)isonicotinamide], the IC50 is at most 10 nM.

Consider `CNc1ncc2cc(-c3cc(NC(=O)N4CC[C@@H](CC(F)(F)F)C4)c(F)cc3C)c(C)nc2n1` [Example 18, (S)-N-(2-fluoro-4-methyl-5-(7-methyl-2-(methylamino)pyrido[2,3-d]pyrimidin-6-yl)phenyl)-3-(2,2,2-trifluoroethyl)pyrrolidine-1-carboxamide], for which the IC50 was at most 10 nM.
